Source: patent US20020095695A1, “Tillering promoter for plant and method for tillering promotion of plant” (AJINOMOTO CO., INC., priority 2000, published 2002)

Columns and labels:
Type in all cases: in vivo
[1] = tested on: lawn grass (a European grass; bent grass); assay: Effect of proline on hydroponic cultivation of lawn grass (1); conditions: for Average leaf length / Average root length / Number of leaves per one root / Number of tillering per one root / Total weight of living plants per five roots: 5 roots per group, inosine 2 ppm in hydroponic medium, proline 20 ppm onto leaf surfaces once a week; for tillering promotion (observation): confirmation on the 40th day, inosine 2 ppm in medium, proline 20 ppm foliar once a week
Method: Seedlings of grass (a European grass; bent grass) were raised and divided into four groups of A to D, and hydroponic cultivation was carried out (Table 1 shown below). Concerning Groups B and D, inosine was added to each hydroponic medium in such amount that the concentration became 2 ppm. Concerning Groups C and D, proline was applied onto leaf surfaces once a week in an amount of 20 ppm. Group A was the control. […] Furthermore, five average stocks which had not been withered were sampled from each group and examined.

[2] = tested on: grass (a European grass: bent grass); assay: Effect of proline on hydroponic cultivation of grass (2), proline concentration changed stepwise; conditions: 40th day
Method: Seedlings of grass (a European grass: bent grass) were raised and divided into six groups of A to F, and hydroponic cultivation was carried out (Table 3 shown below). At that time, inosine was added to the hydroponic media for all the groups in such amount that the concentration became 2 ppm in each hydroponic medium. Group A was the control. In the groups of B to F, proline was applied onto leaf surfaces once a week with the concentration being changed stepwise.
(§1) Furthermore, five average stocks which had not been withered were sampled from each group and examined.

[3] = tested on: grass (a European grass: bent grass); assay: Effects of proline, glutamine, arginine and urea on hydroponic cultivation of grass; conditions: for Average leaf length / Average root length / Number of leaves per one root / Number of tillering per one root / Total weight of living plants per five roots / number of leaves and total weight of the living plant, in words: 40th day; for Average leaf length / Average root length / Number of leaves per one root / Number of tillering per one root / Total weight of living plants per five roots: 5 roots per group, proline 20 ppm, others at the same nitrogen amount; for number of leaves and total weight of the living plant, in words: five average stocks per group
Method: Seedlings of grass (a European grass: bent grass) were raised and divided into five groups of A to E, and hydroponic cultivation was carried out (Table 2 shown below). Group A was the control. Concerning Group B, proline was applied onto leaf surfaces once a week in an amount of 20 ppm.
as §1

[4] = group B, 2 ppm, inosine 2 ppm in hydroponic medium of all groups, foliar once a week
[5] = 0.2% proline foliar once a week, inosine 2 ppm in hydroponic medium
[6] = 2.0% proline foliar once a week, inosine 2 ppm in hydroponic medium
[7] = 20 ppm proline foliar once a week, inosine 2 ppm in hydroponic medium
[8] = 200 ppm proline foliar once a week, inosine 2 ppm in hydroponic medium

Q: How did the Average leaf length ([1]; 40th day) turn out when `OC[C@H]1O[C@@H](n2cnc3c(O)ncnc32)[C@H](O)[C@@H]1O` [Inosine, inosine] was run?
A: 20 cm

Q: What about the Average root length ([1]; 40th day) of the same molecule?
A: 2 cm

Q: And the “Number of leaves per one root” value ([1]; 40th day)?
A: 7

Q: What about the “Number of tillering per one root” value ([1]; 40th day) of the same molecule?
A: 2

Q: And the “Total weight of living plants per five roots” value (“Total weight … per five roots” below) ([1]; 40th day)?
A: 0.40 g

Q: What about the “tillering promotion (observation)” value [1] of the same molecule?
A: no tillering promotion was observed

Q: What about the Average leaf length [2, 4] of the same molecule?
A: 24 cm

Q: And the Average root length [2, 4]?
A: 4 cm

Q: And the “Number of leaves per one root” value [2, 4]?
A: 14

Q: What about the “Number of tillering per one root” value [2, 4] of the same molecule?
A: 3

Q: What about the “Total weight … per five roots” value [2, 4] of the same molecule?
A: 1.04 g

Q: Which Average leaf length ([1]; 40th day) does the source give for `O=C(O)[C@@H]1CCCN1` [Proline, proline] here?
A: 22 cm

Q: And the Average root length ([1]; 40th day)?
A: 1 cm

Q: And the “Number of leaves per one root” value ([1]; 40th day)?
A: 16

Q: And the “Number of tillering per one root” value ([1]; 40th day)?
A: 5

Q: And the “Total weight … per five roots” value ([1]; 40th day)?
A: 0.53 g

Q: And the “growth (root length, leaf length and number, total weight of the living plant, tillering number), in words” value ([1]; 40th day, five average stocks per group)?
A: good growth

Q: What about the “tillering promotion (observation)” value [1] of the same molecule?
A: tillering promotion was clearly observed

Q: What about the Average leaf length ([3]; foliar once a week) of the same molecule?
A: 14 cm

Q: What about the Average root length ([3]; foliar once a week) of the same molecule?
A: 2 cm

Q: And the “Number of leaves per one root” value ([3]; foliar once a week)?
A: 17

Q: What about the “Number of tillering per one root” value ([3]; foliar once a week) of the same molecule?
A: 5

Q: And the “Total weight … per five roots” value ([3]; foliar once a week)?
A: 0.60 g

Q: What about the “number of leaves and total weight of the living plant, in words” value [3] of the same molecule?
A: good results

Q: What about the Average leaf length [2, 5] of the same molecule?
A: 23 cm

Q: And the Average root length [2, 5]?
A: 5 cm

Q: What about the “Number of leaves per one root” value [2, 5] of the same molecule?
A: 14

Q: And the “Number of tillering per one root” value [2, 5]?
A: 3

Q: What about the “Total weight … per five roots” value [2, 5] of the same molecule?
A: 0.90 g

Q: And the Average leaf length [2, 6]?
A: 19 cm

Q: And the Average root length [2, 6]?
A: 3 cm

Q: What about the “Number of leaves per one root” value [2, 6] of the same molecule?
A: 11

Q: What about the “Number of tillering per one root” value [2, 6] of the same molecule?
A: 3

Q: And the “Total weight … per five roots” value [2, 6]?
A: 0.40 g

Q: And the Average leaf length [2, 7]?
A: 24 cm

Q: What about the Average root length [2, 7] of the same molecule?
A: 4 cm

Q: And the “Number of leaves per one root” value [2, 7]?
A: 15

Q: What about the “Number of tillering per one root” value [2, 7] of the same molecule?
A: 4

Q: And the “Total weight … per five roots” value [2, 7]?
A: 0.95 g

Q: What about the Average leaf length [2, 8] of the same molecule?
A: 24 cm

Q: And the Average root length [2, 8]?
A: 5 cm

Q: And the “Number of leaves per one root” value [2, 8]?
A: 24

Q: And the “Number of tillering per one root” value [2, 8]?
A: 4

Q: And the “Total weight … per five roots” value [2, 8]?
A: 1.01 g

Q: And the “inhibition of the growth or withering (observation)” value ([2]; Group F (2.0% proline foliar once a week), inosine 2 ppm in medium)?
A: inhibition of the growth or withering was observed

Q: What about the “number of leaves and total weight of the living plant, in words” value ([2]; proline at a concentration of 2 ppm to 0.2%, inosine 2 ppm in medium) of the same molecule?
A: good results

Q: What does the source list for `N=C(N)NCCC[C@H](N)C(=O)O` [Arginine, arginine]?
A: Average leaf length ([3]; foliar once a week): 18 cm; Average root length ([3]; foliar once a week): 2 cm; Number of leaves per one root ([3]; foliar once a week): 9; Number of tillering per one root ([3]; foliar once a week): 3; Total weight of living plants per five roots ([3]; foliar once a week): 0.51 g; number of leaves and total weight of the living plant, in words [3]: good results

Q: What does the source list for `NC(=O)CC[C@H](N)C(=O)O` [Glutamine, glutamine]?
A: Average leaf length ([3]; foliar once a week): 18 cm; Average root length ([3]; foliar once a week): 2 cm; Number of leaves per one root ([3]; foliar once a week): 11; Number of tillering per one root ([3]; foliar once a week): 3; Total weight of living plants per five roots ([3]; foliar once a week): 0.66 g; number of leaves and total weight of the living plant, in words [3]: good results

Q: Which Average leaf length ([3]; foliar once a week) does the source give for `NC(N)=O` [Urea, urea, reference compound] here?
A: 15 cm

Q: And the Average root length ([3]; foliar once a week)?
A: 2 cm

Q: And the “Number of leaves per one root” value ([3]; foliar once a week)?
A: 6

Q: What about the “Number of tillering per one root” value ([3]; foliar once a week) of the same molecule?
A: 1

Q: What about the “Total weight … per five roots” value ([3]; foliar once a week) of the same molecule?
A: 0.34 g

Q: And the “tillering promotion (observation)” value ([3]; confirmation on the 40th day, foliar once a week, nitrogen amount equal to 20 ppm proline)?
A: no tillering promotion was observed
